Test results reported in the kinase profiling compilation of Christmann-Franck et al. (2016).

Key:
Experiment in all cases: radiometric filter-binding kinase assay, Kinase HotSpot
Conditions in all cases: compound 0.5 µM; ATP 10 µM
[1] = system: MKNK1 (human), Q9BUB5 [T385D; 165-205 del]
[2] = system: MAP2K6 (human), P52564 [S207E/T211E]
[3] = system: FLT4 (human), P35916 [Q890H]
[4] = system: PRKCQ (human), Q04759 [P330L]
Sequence of PRKCQ (human), Q04759 [P330L] (Q04759 whole entry P330L, looked up): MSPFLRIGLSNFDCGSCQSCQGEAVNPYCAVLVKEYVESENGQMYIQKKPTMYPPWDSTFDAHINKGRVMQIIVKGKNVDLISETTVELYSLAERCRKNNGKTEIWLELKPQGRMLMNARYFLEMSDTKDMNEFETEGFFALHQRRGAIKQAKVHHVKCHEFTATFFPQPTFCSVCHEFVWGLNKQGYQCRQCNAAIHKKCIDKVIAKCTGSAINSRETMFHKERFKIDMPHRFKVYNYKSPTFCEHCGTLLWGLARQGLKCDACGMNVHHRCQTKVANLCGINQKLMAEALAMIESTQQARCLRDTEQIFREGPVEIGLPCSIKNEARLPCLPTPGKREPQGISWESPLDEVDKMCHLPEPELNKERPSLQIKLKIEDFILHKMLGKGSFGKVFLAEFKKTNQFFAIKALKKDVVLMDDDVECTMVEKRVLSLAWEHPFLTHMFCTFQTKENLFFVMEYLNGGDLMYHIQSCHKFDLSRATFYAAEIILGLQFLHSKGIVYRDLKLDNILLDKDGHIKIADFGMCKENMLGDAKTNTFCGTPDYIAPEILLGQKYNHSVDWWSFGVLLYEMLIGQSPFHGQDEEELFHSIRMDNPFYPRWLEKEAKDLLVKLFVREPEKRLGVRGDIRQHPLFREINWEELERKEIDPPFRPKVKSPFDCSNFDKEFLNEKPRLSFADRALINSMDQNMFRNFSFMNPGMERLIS

Sequence of MKNK1 (human), Q9BUB5 [T385D; 165-205 del] (Q9BUB5 whole entry, looked up, stated change not applied): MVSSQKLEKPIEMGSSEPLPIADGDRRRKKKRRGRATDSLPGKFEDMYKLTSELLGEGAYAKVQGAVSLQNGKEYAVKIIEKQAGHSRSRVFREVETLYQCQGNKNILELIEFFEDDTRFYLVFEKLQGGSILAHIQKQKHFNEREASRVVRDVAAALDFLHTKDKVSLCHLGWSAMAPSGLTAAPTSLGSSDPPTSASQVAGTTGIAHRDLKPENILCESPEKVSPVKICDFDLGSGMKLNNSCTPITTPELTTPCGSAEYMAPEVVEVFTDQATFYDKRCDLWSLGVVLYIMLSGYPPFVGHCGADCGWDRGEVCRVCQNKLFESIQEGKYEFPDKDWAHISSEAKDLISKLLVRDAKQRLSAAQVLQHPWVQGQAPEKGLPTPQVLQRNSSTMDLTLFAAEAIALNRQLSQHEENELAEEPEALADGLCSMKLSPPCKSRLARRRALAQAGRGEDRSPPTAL
Sequence of FLT4 (human), P35916 [Q890H] (P35916 whole entry, looked up, stated change not applied): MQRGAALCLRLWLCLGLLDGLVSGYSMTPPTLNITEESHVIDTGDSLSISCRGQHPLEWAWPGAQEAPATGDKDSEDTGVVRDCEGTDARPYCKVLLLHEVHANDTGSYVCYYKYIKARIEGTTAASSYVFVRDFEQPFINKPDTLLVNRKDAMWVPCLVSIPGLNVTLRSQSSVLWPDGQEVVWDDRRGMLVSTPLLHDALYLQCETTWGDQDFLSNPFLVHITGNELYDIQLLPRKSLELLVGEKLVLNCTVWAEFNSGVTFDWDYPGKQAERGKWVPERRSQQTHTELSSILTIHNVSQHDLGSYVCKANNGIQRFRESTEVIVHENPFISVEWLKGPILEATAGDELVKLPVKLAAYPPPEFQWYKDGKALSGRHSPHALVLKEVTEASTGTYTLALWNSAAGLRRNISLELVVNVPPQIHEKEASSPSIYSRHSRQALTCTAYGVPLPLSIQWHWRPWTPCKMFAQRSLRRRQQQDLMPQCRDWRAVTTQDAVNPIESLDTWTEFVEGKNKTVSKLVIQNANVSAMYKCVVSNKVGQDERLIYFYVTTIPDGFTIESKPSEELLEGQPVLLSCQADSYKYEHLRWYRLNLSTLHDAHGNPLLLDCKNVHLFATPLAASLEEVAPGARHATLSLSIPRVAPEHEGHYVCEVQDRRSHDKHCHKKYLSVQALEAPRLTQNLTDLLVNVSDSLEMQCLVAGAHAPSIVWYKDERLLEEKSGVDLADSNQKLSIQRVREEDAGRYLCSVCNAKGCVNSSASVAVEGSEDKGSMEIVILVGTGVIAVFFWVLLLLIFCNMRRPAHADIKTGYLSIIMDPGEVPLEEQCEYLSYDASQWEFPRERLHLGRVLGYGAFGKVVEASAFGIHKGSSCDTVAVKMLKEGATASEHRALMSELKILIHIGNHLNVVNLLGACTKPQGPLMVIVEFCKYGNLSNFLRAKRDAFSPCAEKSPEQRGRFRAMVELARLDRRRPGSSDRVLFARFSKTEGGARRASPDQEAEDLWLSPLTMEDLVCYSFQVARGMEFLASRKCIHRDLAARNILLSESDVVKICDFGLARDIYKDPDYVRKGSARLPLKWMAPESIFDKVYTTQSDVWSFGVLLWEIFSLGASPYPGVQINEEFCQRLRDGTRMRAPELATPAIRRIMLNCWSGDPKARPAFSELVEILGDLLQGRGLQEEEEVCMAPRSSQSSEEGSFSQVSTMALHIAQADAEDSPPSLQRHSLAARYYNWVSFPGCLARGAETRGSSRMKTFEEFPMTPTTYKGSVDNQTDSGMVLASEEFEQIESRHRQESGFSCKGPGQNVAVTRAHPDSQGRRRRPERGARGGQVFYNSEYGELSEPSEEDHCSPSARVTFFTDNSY
Sequence of MAP2K6 (human), P52564 [S207E/T211E] (P52564 whole entry S207E/T211E, looked up): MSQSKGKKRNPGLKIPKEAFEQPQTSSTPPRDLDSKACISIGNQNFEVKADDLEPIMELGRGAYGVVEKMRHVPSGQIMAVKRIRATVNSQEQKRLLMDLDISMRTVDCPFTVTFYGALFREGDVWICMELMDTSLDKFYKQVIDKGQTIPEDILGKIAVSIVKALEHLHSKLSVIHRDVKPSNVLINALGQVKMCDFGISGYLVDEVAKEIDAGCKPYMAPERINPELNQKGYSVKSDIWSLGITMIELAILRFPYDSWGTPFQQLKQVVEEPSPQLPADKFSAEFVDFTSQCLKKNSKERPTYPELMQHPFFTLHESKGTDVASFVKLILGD

For `Cn1sc(=O)n(Cc2ccccc2)c1=O`, the residual activity [1] was 98.6%, the residual activity [2] was 94.9% and the residual activity [3] was 86.8%. The residual activity [4] was 100%.

`CC(C)N(CCC(=O)c1ccc2ccccc2c1)Cc1ccccc1` showed a residual activity [1] of 105%, a residual activity [2] of 93.2% and a residual activity [3] of 94%. The residual activity [4] was 122%.

Work on `CCCCc1c(-c2ccc(O)cc2)[nH]c2nccnc12` yielded a residual activity [1] of 94.5%, a residual activity [2] of 100% and a residual activity [3] of 77.4%. It also gave a residual activity [4] of 118%.

`CS(=O)c1ccc(-c2nc(-c3ccc(F)cc3)c(-c3ccncc3)[nH]2)cc1` (stereo unspecified) gave a residual activity [1] of 98.5%, a residual activity [2] of 102% and a residual activity [3] of 119%. It also gave a residual activity [4] of 111%.

In the case of `CCC(=O)Nc1ccc2ncnc(Nc3cccc(Br)c3)c2c1`, the residual activity [1] is reported as 82.8%, the residual activity [2] is reported as 94.5% and the residual activity [3] is reported as 91.5%. For the same compound, the residual activity [4] was 96.3%.

In the case of `CN([C@@H](Cc1ccc(OS(=O)(=O)c2cccc3cnccc23)cc1)C(=O)N1CCN(c2ccccc2)CC1)S(=O)(=O)c1cccc2cnccc12`, the residual activity [1] is reported as 106%, the residual activity [2] is reported as 104% and the residual activity [3] is reported as 90.5%. For the same compound, the residual activity [4] was 108%.

With `Nc1n[nH]c2nnc(-c3c(-c4ccccc4)nn4ccccc34)cc12` the residual activity [1] was 98.5%, the residual activity [2] was 90.9% and the residual activity [3] was 89.9%. It also gave a residual activity [4] of 79.9%.

With `COc1ccc(COc2ccc(Cc3cnc(N)nc3N)cc2OC)cc1` the residual activity [1] was 113%, the residual activity [2] was 87.4% and the residual activity [3] was 105%. For the same compound, the residual activity [4] was 98%.

`O=C1NC(=O)C(c2c[nH]c3ccccc23)=C1c1c[nH]c2ccccc12` was tested, and the residual activity [1] was 115%, the residual activity [2] was 98% and the residual activity [3] was 35.2%. It also gave a residual activity [4] of 33.8%.

`COc1ccc(CNC(=O)Nc2ncc([N+](=O)[O-])s2)cc1` was tested, and the residual activity [1] was 98.4%, the residual activity [2] was 85.9% and the residual activity [3] was 91.2%. For the same compound, the residual activity [4] was 96.9%.

Work on `Cn1nc2c3c(cccc31)C(=O)c1ccccc1-2` yielded a residual activity [1] of 105%, a residual activity [2] of 96.4% and a residual activity [3] of 86.8%. The residual activity [4] was 106%.

Compound `COc1cc2ncc(-c3ccccc3)nc2cc1OC` has a residual activity [1] of 104%, a residual activity [2] of 94.9% and a residual activity [3] of 90.4%. The residual activity [4] was 101%.

`CC(C)c1nn(-c2c(Cl)cccc2Cl)c2nc(Cc3ccc(OCCO)cc3)nc(O)c12` gave a residual activity [1] of 110%, a residual activity [2] of 92.7% and a residual activity [3] of 103%. It also gave a residual activity [4] of 97.3%.

In the case of `O=c1cc(N2CCOCC2)oc2c1ccc1ccccc12`, the residual activity [1] is reported as 95%, the residual activity [2] is reported as 94.1% and the residual activity [3] is reported as 112%. For the same compound, the residual activity [4] was 90.6%.

With `O=c1[nH]c2ccccc2n1C1CCN(Cc2ccc(-c3nc4cc5[nH]cnc5cc4nc3-c3ccccc3)cc2)CC1` the residual activity [1] was 104%, the residual activity [2] was 101% and the residual activity [3] was 98.7%. It also gave a residual activity [4] of 96.4%.

`O=C1Nc2ccccc2/C1=C\c1c(Cl)[nH]c2ccccc12` showed a residual activity [1] of 105%, a residual activity [2] of 93.4% and a residual activity [3] of 108%. For the same compound, the residual activity [4] was 91.7%.

With `Nc1nccc(-c2c(-c3ccc(F)cc3)ncn2C2CCNCC2)n1` the residual activity [1] was 99%, the residual activity [2] was 106% and the residual activity [3] was 116%. It also gave a residual activity [4] of 107%.

`O=C(O)/C=C/c1cc(Br)c(Br)c(Br)c1Br` was tested, and the residual activity [1] was 61.1%, the residual activity [2] was 96.1% and the residual activity [3] was 98.2%. For the same compound, the residual activity [4] was 89.6%.

Compound `N#Cc1c(NC(=O)c2cccc3ccccc23)sc2c1CCCC2` has a residual activity [1] of 106%, a residual activity [2] of 98.1% and a residual activity [3] of 89.8%.

`CCN(CC)CCNC(=O)c1c(C)[nH]c(/C=C2\C(=O)Nc3ccc(F)cc32)c1C` was tested, and the residual activity [1] was 99.3%, the residual activity [2] was 75.9% and the residual activity [4] was 63.5%.

`O=S(=O)(c1cccc2cnccc12)N1CCCNCC1` showed a residual activity [1] of 91.8%, a residual activity [2] of 95.6% and a residual activity [4] of 89.9%.

In the case of `Cc1ccc(Nc2nccc(N(C)c3ccc4c(C)n(C)nc4c3)n2)cc1S(N)(=O)=O`, the residual activity [1] is reported as 102%, the residual activity [2] is reported as 98.3% and the residual activity [4] is reported as 93.1%.

`C#Cc1cccc(Nc2ncnc3cc(OCCOC)c(OCCOC)cc23)c1` was tested, and the residual activity [2] was 94.2% and the residual activity [4] was 77.2%.
